The text below walks through data of patent US8785470B2, “Heterocyclic compounds and uses thereof” (Infinity Pharmaceuticals, Inc., priority 2011, dated 2014).

In one data set the test system is NZB/W model. The note with it: profilactic and therapeutic model; reductions in auto-antibody production, kidney damage, improvements in survival; cited from earlier work.
The subject of data set [1] is phospho-AKT in 786-O cells (PI3Kβ). Description: PI3Kβ selective assay, phospho-AKT in 786-O cells. In kind it is cell-based. The note with it: Homo sapiens, 786-0, read-out: IC50 for phospho-AKT, 786-O cell model. From the text:
A compound's ability in selectively inhibiting PI3Kβ can be assessed using 786-O cells, i.e., human kidney carcinoma cell line. Briefly, 786-O cells, in which PI3Kβ is constitutively active, can be treated with test compounds. Test compounds' ability to inhibit AKT phosphorylation in 786-O cells, therefore, is indicative of selective inhibition of PI3β. Thus, by monitoring the reduction of phospho-AKT in 786-O cells (using for example, phospho-AKT antibodies), a compound's potential efficacy in selectively inhibiting PI3Kβ can be assessed.
Certain compounds provided herein (e.g., Compounds 5, 49, 138, 326, 328, 354, 359, 389, and 391) were tested in 786-O cell model using procedures as described above.

A further data set addresses T1, PI3Kγ (Homo sapiens, UniProt P48736).
T1 construct: purchased Millipore Corporation 14-558-K
Nature of the data set: PI3-Kinase HTRF assay, PI3Kγ. In kind it is biochemical. The note with it: bins Greater than 10 μM and Greater than 1 μM to 10 μM; 10 μM ATP, PIP2 at 10 μM. The source says: (§1) A PI3-Kinase HTRF® assay kit (cat No. 33-016) purchased from Millipore Corporation was used to screen compounds provided herein. This assay used specific, high affinity binding of the GRPI pleckstrin homology (PH) domain to PIP3, the product of a Class 1A or 1B PI3 Kinase acting on its physiological substrate PIP2. During the detection phase of the assay, a complex was generated between the GST-tagged PH domain and biotinylated short chain PIP3. The biotinylated PIP3 and the GST-tagged PH domain recruited fluorophores (Streptavidin-Allophycocyanin and Europium-labeled anti-GST respectively) to form the fluorescence resonance energy transfer (FRET) architecture, generating a stable time-resolved FRET signal. The FRET complex was disrupted in a competitive manner by non-biotinylated PIP3, a product formed in the PI3 Kinase assay.
(§2) PI3 Kinase α, β, γ and δ activity was assayed using the PI3 Kinase HTRF® assay kit (catalogue No. 33-016) purchased from Millipore Corporation. Purified recombinant PI3Kα (catalogue No. 14-602-K), PI3Kβ (catalogue No. 14-603-K), PI3Kγ (catalogue No. 14-558-K) and PI3Kδ (catalogue No. 14-604-K) were obtained from Millipore Corporation. Purified recombinant PI3K enzyme was used to catalyze the phosphorylation of phosphatidylinositol 4,5-bisphosphate (PIP2 at 10 μM) to phosphatidylinositol 3,4,5-trisphosphate (PIP3) in the presence of 10 μM ATP. The assay was carried out in 384-well format and detected using a Perkin Elmer EnVision Xcite Multilabel Reader. Emission ratios were converted into percent inhibitions and imported into GraphPad Prism software. The concentration necessary to achieve inhibition of enzyme activity by 50% (IC50) was calculated using concentrations ranging from 20 μM to 0.1 nM (12-point curve). IC50 values were determined using a nonlinear regression model available in GraphPad Prism 5. […]
In general terms: In TR-FRET formats the signal depends on donor and acceptor labels being close together.

Data set [2] relates to phospho-AKT in SKOV-3 cells (PI3Kα). Nature of the data set: PI3Kα selective assay, phospho-AKT in SKOV-3 cells. In kind it is cell-based. The following applies: Homo sapiens, SK-OV-3, read-out: IC50 for phospho-AKT, SKOV-3 cell model. The source says:
A compound's ability in selectively inhibiting PI3Kα can be assessed using SKOV-3 cells, i.e., human ovarian carcinoma cell line. Briefly, SKOV-3 cells, in which mutant PI3Kα is constitutively active, can be treated with test compounds. Test compounds' ability to inhibit AKT phosphorylation in SKOV-3 cells, therefore, is indicative of selective inhibition of PI3Kα. Thus, by monitoring the reduction of phospho-AKT in SKOV-3 cells (using for example, phospho-AKT antibodies), a compound's potential efficacy in selectively inhibiting PI3Kα can be assessed.
Certain compounds provided herein (e.g., Compounds 5, 49, 138, 326, 328, 354, 359, 389, and 391) were tested in SKOV-3 cell model using procedures as described above.

The subject of data set [3] is phospho-AKT in RAW 264.7 cells (PI3Kγ). Description: PI3Kγ selective assay, phospho-AKT in RAW 264.7 cells. The note with it: Mus musculus, RAW264.7, stimulated with C5a, read-out: IC50 for phospho-AKT, RAW 264.7 cell model. In kind it is cell-based. Put shortly:
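Serum-starved RAW 264.7 macrophages are stimulated with the GPCR agonist C5a and treated with compound before, with or after stimulation. Inhibition is read as reduced C5a-induced phospho-AKT, detected for example with phospho-AKT antibodies.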

For data set [4], the system named is phospho-AKT in RAJI cells (PI3Kδ). Nature of the data set: PI3Kδ selective assay, phospho-AKT in RAJI cells. In kind it is cell-based. The note with it: RAJI cells stimulated with anti-human IgM; read-out: IC50 for phospho-AKT, RAJI cell model. Put shortly:
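Serum-starved RAJI B-lymphoma cells stimulated with anti-human IgM to trigger B-cell receptor signaling; compound effect read as reduction of phospho-AKT, for example detected with phospho-AKT antibodies.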

The target in a further data set is T2, PI3Kδ (Homo sapiens, UniProt O00329).
T2 construct: purchased Millipore Corporation 14-604-K
T2 sequence (O00329 whole entry): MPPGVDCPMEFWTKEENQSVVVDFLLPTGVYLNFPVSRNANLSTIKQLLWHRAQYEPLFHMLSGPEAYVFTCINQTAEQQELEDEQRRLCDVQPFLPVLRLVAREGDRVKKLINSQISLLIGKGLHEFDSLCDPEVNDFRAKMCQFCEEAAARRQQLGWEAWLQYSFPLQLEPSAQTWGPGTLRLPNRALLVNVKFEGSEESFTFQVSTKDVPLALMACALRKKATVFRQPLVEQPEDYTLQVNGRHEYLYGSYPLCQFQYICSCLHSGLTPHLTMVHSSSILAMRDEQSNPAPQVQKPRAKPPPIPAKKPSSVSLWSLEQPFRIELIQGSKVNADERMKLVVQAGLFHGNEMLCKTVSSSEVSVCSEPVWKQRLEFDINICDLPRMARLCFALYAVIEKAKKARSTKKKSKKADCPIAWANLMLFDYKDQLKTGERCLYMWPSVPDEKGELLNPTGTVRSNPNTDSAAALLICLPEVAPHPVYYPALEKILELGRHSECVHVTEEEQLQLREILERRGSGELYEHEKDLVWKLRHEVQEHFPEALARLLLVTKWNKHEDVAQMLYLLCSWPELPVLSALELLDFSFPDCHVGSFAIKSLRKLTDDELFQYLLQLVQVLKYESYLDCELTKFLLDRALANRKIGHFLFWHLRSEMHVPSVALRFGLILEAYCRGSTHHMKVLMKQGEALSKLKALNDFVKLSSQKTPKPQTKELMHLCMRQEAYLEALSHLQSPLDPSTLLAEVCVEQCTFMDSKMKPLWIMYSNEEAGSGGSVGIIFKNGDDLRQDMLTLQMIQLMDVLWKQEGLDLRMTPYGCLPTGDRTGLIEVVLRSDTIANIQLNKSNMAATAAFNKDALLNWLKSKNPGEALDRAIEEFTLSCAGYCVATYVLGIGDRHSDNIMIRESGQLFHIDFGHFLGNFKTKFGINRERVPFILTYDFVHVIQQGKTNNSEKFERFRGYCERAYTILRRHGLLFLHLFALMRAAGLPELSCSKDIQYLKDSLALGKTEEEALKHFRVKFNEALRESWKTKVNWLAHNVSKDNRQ
T2 sequence (P27986 whole entry partner): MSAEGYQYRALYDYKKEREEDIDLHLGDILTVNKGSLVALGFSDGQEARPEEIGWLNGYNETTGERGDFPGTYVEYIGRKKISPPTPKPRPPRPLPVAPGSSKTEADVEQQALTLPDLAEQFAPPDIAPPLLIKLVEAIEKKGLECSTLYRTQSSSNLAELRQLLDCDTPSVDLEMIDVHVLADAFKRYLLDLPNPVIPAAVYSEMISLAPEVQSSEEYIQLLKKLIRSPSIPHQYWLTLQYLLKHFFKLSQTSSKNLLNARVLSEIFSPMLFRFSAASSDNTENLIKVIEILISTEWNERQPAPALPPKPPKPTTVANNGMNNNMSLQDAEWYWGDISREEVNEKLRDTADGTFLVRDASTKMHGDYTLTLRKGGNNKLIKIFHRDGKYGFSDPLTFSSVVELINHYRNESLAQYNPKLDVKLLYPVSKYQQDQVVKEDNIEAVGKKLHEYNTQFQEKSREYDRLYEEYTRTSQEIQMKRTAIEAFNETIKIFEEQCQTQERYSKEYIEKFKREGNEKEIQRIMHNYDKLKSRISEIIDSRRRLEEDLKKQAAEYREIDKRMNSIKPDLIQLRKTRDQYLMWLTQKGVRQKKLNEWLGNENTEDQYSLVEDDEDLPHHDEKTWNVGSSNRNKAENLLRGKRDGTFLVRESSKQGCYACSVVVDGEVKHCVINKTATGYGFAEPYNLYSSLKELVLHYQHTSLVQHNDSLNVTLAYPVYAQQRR
Nature of the data set: PI3-Kinase HTRF assay, PI3Kδ. In kind it is biochemical. The following applies: bins Greater than 10 μM and Greater than 1 μM to 10 μM; 10 μM ATP, PIP2 at 10 μM.
Source text: as §1, §2

For the next data set, the target named is T3, PI3Kβ (Homo sapiens, UniProt P42338).
T3 construct: purchased Millipore Corporation 14-603-K
T3 sequence (P42338 whole entry): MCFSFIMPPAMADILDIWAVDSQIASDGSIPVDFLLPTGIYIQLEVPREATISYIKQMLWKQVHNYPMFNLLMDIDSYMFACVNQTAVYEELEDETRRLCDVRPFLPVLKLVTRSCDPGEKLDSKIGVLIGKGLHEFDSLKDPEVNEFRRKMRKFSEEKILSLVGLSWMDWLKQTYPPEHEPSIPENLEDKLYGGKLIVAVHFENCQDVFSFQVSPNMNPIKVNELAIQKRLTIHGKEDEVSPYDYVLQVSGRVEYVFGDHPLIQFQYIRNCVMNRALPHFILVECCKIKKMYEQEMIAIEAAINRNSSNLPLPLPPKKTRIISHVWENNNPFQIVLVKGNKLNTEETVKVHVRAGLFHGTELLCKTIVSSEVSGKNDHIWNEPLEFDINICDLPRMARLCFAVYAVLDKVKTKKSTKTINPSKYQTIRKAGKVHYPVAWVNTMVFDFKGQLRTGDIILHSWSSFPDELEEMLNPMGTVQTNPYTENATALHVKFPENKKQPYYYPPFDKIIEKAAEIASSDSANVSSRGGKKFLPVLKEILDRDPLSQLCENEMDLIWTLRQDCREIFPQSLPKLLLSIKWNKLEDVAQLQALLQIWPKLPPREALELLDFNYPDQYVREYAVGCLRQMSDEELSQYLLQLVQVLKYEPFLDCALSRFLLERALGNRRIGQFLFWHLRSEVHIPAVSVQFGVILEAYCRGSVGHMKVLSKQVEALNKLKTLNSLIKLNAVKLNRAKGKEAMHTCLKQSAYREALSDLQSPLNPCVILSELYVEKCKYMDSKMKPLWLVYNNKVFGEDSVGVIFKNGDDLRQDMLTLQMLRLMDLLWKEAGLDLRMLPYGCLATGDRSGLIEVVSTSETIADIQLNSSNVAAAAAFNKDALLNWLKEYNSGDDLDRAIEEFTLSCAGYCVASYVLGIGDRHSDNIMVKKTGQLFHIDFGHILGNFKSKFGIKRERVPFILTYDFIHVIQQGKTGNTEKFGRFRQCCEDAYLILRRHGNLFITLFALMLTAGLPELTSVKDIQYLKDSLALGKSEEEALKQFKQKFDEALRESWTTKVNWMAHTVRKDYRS
T3 sequence (P27986 whole entry partner): as the sequence (P27986 whole entry partner) above
Description: PI3-Kinase HTRF assay, PI3Kβ. In kind it is biochemical. The following applies: bins Greater than 10 μM and Greater than 1 μM to 10 μM; 10 μM ATP, PIP2 at 10 μM. Put shortly:
(§3)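 Purified recombinant human PI3Kα, β, γ or δ (0.25-0.3 μg/ml) preincubated 15 min at room temperature with compound (2% DMSO) and 10 μM PIP2, then reacted 1 h with 10 μM ATP. PIP3 product detected by competitive HTRF (GST-PH domain/biotin-PIP3); IC50 from 12-point curves, 20 μM to 0.1 nM, by nonlinear regression.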

In another data set the target is T4, PI3Kα (Homo sapiens, UniProt P42336).
T4 construct: purchased Millipore Corporation 14-602-K
T4 sequence (P42336 whole entry): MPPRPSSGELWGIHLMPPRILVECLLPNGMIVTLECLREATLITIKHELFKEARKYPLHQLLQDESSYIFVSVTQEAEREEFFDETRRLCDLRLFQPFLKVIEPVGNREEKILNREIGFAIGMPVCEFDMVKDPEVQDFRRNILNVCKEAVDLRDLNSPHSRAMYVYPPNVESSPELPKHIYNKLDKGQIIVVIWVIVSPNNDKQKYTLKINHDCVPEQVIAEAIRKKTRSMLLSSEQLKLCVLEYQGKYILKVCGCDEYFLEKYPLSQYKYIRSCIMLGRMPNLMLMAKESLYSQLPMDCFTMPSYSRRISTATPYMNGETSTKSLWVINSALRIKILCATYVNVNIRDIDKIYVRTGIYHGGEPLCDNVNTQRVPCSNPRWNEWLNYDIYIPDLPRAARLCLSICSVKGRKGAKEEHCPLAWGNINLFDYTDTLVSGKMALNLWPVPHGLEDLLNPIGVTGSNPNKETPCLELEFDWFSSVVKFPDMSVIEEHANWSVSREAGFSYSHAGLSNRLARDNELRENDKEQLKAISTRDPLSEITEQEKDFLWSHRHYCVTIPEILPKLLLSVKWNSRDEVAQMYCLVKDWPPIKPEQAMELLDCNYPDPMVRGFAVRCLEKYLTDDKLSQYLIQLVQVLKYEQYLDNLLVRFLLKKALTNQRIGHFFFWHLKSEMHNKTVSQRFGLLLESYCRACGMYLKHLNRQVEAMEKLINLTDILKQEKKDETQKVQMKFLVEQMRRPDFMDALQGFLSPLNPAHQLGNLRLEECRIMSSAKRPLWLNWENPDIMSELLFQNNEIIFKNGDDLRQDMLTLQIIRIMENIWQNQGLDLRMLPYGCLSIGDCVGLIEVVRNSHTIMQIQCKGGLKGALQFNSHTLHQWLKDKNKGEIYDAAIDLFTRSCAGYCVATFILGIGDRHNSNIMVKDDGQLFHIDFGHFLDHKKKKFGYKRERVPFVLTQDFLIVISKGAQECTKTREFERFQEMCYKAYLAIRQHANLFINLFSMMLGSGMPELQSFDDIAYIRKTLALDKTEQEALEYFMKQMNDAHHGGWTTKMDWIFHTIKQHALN
T4 sequence (P27986 whole entry partner): as the sequence (P27986 whole entry partner) above
Nature of the data set: PI3-Kinase HTRF assay, PI3Kα. In kind it is biochemical. The following applies: bins Greater than 10 μM and Greater than 1 μM to 10 μM; 10 μM ATP, PIP2 at 10 μM; read-out: IC50 P13Kα. Put shortly: as §3

The next data set deals with B6.Slez.Sle3z model. The following applies: cited from earlier work.
The conditions of data set [5]: PBS at pH 7.4, 37° C., 24 hours; cited from earlier work.
Data set [6] has as its system leukemic cells from p190 transduced cultures. The following applies: about 70 mg/kg twice daily; cited from earlier work.
For data set [7] the following is noted: control or reference compounds, 5 μM; cited from earlier work.
Setting [8] is: ranges between 1 μM and 10 μM and greater than 10 μM.
[9] abbreviates: range between 100 nM and 1 μM (given as 100-1000).
Where [10] appears, read: ranges less than 100 nM and between 100 nM and 1 μM (given as 100-1000).

The structures appear in SMILES notation. Like-named read-outs stand apart in the source and are kept apart here.

T1 sequence (P48736 whole entry): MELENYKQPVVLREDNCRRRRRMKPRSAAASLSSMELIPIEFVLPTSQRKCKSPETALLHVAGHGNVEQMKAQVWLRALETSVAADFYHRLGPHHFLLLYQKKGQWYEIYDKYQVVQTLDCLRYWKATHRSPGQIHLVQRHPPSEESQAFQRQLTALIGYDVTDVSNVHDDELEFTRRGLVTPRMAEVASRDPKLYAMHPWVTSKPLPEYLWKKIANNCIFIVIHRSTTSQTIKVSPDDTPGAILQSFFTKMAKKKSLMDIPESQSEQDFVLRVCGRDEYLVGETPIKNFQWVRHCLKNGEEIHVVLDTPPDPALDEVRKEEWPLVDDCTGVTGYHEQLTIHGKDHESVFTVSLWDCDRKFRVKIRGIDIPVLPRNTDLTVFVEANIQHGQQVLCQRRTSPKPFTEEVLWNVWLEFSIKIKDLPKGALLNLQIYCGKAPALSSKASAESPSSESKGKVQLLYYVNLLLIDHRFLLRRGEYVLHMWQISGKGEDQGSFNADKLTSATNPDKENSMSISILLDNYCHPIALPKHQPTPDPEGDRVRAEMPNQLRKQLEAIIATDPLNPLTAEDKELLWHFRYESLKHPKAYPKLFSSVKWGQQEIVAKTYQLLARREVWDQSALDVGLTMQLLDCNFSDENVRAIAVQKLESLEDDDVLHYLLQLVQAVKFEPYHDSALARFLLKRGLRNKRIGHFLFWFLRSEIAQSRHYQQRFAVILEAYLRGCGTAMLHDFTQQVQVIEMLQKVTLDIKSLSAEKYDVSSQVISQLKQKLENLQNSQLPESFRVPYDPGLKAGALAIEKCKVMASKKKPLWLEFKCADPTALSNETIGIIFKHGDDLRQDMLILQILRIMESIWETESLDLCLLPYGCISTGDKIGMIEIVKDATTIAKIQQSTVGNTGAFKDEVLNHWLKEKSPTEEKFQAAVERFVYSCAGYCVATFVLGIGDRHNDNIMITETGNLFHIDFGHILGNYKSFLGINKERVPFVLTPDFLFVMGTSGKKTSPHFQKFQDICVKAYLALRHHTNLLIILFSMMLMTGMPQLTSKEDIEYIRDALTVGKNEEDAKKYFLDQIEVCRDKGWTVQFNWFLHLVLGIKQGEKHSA

On to `CC(C)C[C@H](NC(=O)[C@H](Cc1ccccc1)NC(=O)c1cnccn1)B(O)O` [Bortezimib, bortezomib], for which the “blocking disease in the NZB/W model” value in the data set with NZB/W model was “effective at blocking disease”.
In general, IC50 refers to the concentration at which inhibition is half-maximal. Consider `Cc1ncc(-c2cccc3cc([C@H](C)Nc4nc(N)ncc4C#N)n(C(C)C)c(=O)c23)cn1` [Compound 328], for which the IC50 was 1 to 10 µM in [1] (setting [8]); 1 to 10 µM against PI3Kγ; 0.1 to 1 µM in data set [2] (setting [9]); 0.1 to 1 µM in [3] (setting [10]); < 0.1 µM in data set [4].
In the case of `C[C@H](Nc1nc(N)ncc1C#N)c1cc2cccc(Cl)c2c(C(=O)NC2CCOCC2)n1` [Compound 354], the IC50 in data set [1] (setting [8]) was 1 to 10 µM; in data set [2] (setting [8]), > 10 µM; against PI3Kδ, 1 to 10 µM; in [3] (range between 1 μM and 10 μM), 1 to 10 µM; in data set [4], < 0.1 µM.
On to `CC(C)n1c([C@H](C)Nc2ncnc(N)c2C#N)cc2cccc(-c3ccc(=O)n(C)c3)c2c1=O` [Compound 359], for which the IC50 in data set [1] (setting [9]) was 0.1 to 1 µM; in [2] (setting [8]) it was 1 to 10 µM; at PI3Kβ it was 1 to 10 µM; on PI3Kα, 1 to 10 µM; in data set [3] (range between 1 μM and 10 μM), 1 to 10 µM; in [4], < 0.1 µM.
Turning to `COc1ncc(-c2cccc3cc([C@H](C)Nc4nc(N)ncc4-c4cncs4)n(-c4ccccc4)c(=O)c23)cn1` [Compound 389], the IC50 is 1 to 10 µM in data set [1] (setting [8]); 1 to 10 µM in data set [2] (setting [8]); 1 to 10 µM against PI3Kβ; 1 to 10 µM on PI3Kα; 0.1 to 1 µM in data set [3] (setting [10]); < 0.1 µM in [4].
Turning to `CO[C@H]1C[C@@H]2CC[C@@H](C)[C@@](O)(O2)C(=O)C(=O)N2CCCC[C@H]2C(=O)O[C@H]([C@H](C)C[C@@H]2CC[C@@H](OCCO)[C@H](OC)C2)CC(=O)[C@H](C)/C=C(\C)[C@@H](O)[C@@H](OC)C(=O)[C@H](C)C[C@H](C)/C=C/C=C/C=C/1C` [RAD001, everolimus], in the data set with B6.Slez.Sle3z model, the lupus symptoms result is on record as “ameliorate lupus symptoms”.
Regarding `O=C(O)CCCc1ccc(N(CCCl)CCCl)cc1` [chlorambucil], in data set [5], the chemical stability result is recorded as “largely hydrolyzed”.
On to `Cc1ccc(NC(=O)c2ccc(CN3CCN(C)CC3)cc2)cc1Nc1nccc(-c2cccnc2)n1` [imatinib], for which, in data set [6], the leukemogenesis result is reported as “delay but not cure leukemogenesis”.
For `CC(C)[N+](C)(CCOC(=O)C1c2ccccc2Oc2ccccc21)C(C)C` [propantheline], in [7], the plasma stability result is “intermediate plasma stability”.
As for `CCCOc1cc(N)ccc1C(=O)OCCN(CC)CC` [propoxycaine], the plasma stability entry in [7] is “low plasma stability”.
